Assay [1] concerns the target T1, NA2009wt (recombinant neuraminidase) (Influenza A virus, UniProt C3W6G3). The assay can be described thus: biochemical. In kind it is biochemical, A/California/07/2009 (H1N1) influenza virus. As to conditions: for decrease in potency relative to oseltamivir carboxylate (4): fluorometric assay; for decrease in potency relative to oseltamivir carboxylate (4) / Ki values, fluorometric assay, as described in the text: pH 6.15; for Ki values, fluorometric assay, as described in the text: units given in the value.

The target of assay [2] is T1, NA2009wt (recombinant neuraminidase). As to the kind of experiment: biochemical. The class given is binding, A/California/07/2009 (H1N1) influenza virus.

By Ki is commonly meant the equilibrium dissociation constant of an inhibitor or competing ligand from its target.

Read-outs that look alike come from different tables or passages of the source.

For `CCC(CC)O[C@@H]1C=C(P(=O)(O)O)C[C@H](N)[C@H]1NC(C)=O` [compound 2, tamiphosphor, reference compound], the Ki in assay [1] came to 26 ± 4 nM; in assay [2], 52 ± 9 nM.
On to `CCC(CC)O[C@@H]1C=C(C(=O)O)C[C@H](N[C@H](C)C(=O)O)[C@H]1NC(C)=O` [compound 9], for which, in assay [1], the inhibition constant (Ki) stood at 250 ± 40 nM and the “decrease in potency relative to oseltamivir carboxylate (4)” value is listed as around 10 fold. Moreover, in assay [2], the Ki amounted to 960 ± 260 nM.
For `CCC(CC)O[C@@H]1C=C(C(=O)O)C[C@H](N[C@@H](C)C(=O)O)[C@H]1NC(C)=O` [compound 8], in that order: 15 ± 2 nM, “comparable to that of oseltamivir carboxylate” and 170 ± 60 nM.
As for `CCC(CC)O[C@@H]1C=C(C(=O)O)C[C@H](N[C@@H](CC(=O)O)C(=O)O)[C@H]1NC(C)=O` (mixture of isomers) [compound 10], in assay [1], the “Ki values, fluorometric assay, as described in the text” value was “micromolar range”.
The same measure, in the same setting: in the case of `CCC(CC)O[C@@H]1C=C(C(=O)O)C[C@H](NC(=O)COCCOCCOC)[C@H]1NC(C)=O` [compound 11] it was “micromolar range”.

(Values after publication PMC6292454 (Biochemical Journal, 2018).)
